Our source for the IC50 and inhibition values is ChEMBL document CHEMBL1641543, “Synthesis and topoisomerase II inhibitory and cytotoxic activity of oxiranylmethoxy- and thiiranylmethoxy-chalcone derivatives” (Bioorg Med Chem Lett, 2011).

One assay deals with MCF7. As to the kind of experiment: Cytotoxicity against human MCF7 cells by MTT assay. It is filed as functional, cell-based. On the technique in general: Formazan colour is commonly taken as a measure of viable cells.
A further assay relates to DU-145. The assay can be described thus: Cytotoxicity against human DU145 cells by MTT assay. It is filed as functional, cell-based.
A further assay has as its system HCT-15. As to the kind of experiment: Cytotoxicity against human HCT15 cells by MTT assay. It is filed as functional, cell-based.
The target of assay [1] is DNA topoisomerase 2-alpha (Homo sapiens) (UniProt P11388). As to the kind of experiment: Inhibition of human topoisomerase 2-mediated relaxation of supercoiled pBR322 at 100 uM by agarose gel electrophoresis.
For the next assay, the system named is K562. As to the kind of experiment: Cytotoxicity against human K562 cells by MTT assay. It is filed as functional, cell-based.
Assay [2] concerns the target DNA topoisomerase 2-alpha (Homo sapiens) (UniProt P11388). As to the kind of experiment: Inhibition of human topoisomerase 2-mediated relaxation of supercoiled pBR322 at 20 uM by agarose gel electrophoresis.
Assay [3] concerns the target T1, DNA topoisomerase 1 (Homo sapiens) (UniProt P11387).
T1 sequence (whole entry): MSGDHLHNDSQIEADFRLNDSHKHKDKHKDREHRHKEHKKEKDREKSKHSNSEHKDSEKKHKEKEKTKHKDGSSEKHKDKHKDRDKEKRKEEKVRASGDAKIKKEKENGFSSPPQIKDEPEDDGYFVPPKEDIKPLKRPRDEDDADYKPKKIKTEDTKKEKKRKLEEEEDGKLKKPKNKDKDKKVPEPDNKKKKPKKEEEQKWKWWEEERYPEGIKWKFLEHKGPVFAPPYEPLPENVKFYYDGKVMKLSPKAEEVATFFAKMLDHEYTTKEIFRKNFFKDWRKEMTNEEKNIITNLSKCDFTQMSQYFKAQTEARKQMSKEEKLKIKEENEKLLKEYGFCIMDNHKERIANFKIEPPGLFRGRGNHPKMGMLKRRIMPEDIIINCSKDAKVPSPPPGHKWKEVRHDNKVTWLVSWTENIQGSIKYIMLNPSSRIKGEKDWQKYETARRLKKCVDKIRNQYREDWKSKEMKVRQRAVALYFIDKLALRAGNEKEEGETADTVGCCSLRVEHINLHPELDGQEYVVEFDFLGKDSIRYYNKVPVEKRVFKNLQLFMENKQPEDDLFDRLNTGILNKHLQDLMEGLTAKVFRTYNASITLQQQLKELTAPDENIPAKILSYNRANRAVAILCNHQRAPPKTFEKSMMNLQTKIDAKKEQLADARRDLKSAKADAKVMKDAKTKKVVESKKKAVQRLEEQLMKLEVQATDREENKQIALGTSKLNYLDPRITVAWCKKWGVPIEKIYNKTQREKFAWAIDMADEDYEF
As to the kind of experiment: Inhibition of human topoisomerase 1-mediated relaxation of supercoiled pBR322 at 100 uM by agarose gel electrophoresis.

As usually defined, the IC50 is the midpoint of a concentration-inhibition curve. Read a low IC50 as higher potency. Broadly, the inhibition is the share of the control response that was lost under treatment. Low readings indicate a weak effect, high ones a strong effect.

Sequence of DNA topoisomerase 2-alpha (Homo sapiens) (P11388 whole entry): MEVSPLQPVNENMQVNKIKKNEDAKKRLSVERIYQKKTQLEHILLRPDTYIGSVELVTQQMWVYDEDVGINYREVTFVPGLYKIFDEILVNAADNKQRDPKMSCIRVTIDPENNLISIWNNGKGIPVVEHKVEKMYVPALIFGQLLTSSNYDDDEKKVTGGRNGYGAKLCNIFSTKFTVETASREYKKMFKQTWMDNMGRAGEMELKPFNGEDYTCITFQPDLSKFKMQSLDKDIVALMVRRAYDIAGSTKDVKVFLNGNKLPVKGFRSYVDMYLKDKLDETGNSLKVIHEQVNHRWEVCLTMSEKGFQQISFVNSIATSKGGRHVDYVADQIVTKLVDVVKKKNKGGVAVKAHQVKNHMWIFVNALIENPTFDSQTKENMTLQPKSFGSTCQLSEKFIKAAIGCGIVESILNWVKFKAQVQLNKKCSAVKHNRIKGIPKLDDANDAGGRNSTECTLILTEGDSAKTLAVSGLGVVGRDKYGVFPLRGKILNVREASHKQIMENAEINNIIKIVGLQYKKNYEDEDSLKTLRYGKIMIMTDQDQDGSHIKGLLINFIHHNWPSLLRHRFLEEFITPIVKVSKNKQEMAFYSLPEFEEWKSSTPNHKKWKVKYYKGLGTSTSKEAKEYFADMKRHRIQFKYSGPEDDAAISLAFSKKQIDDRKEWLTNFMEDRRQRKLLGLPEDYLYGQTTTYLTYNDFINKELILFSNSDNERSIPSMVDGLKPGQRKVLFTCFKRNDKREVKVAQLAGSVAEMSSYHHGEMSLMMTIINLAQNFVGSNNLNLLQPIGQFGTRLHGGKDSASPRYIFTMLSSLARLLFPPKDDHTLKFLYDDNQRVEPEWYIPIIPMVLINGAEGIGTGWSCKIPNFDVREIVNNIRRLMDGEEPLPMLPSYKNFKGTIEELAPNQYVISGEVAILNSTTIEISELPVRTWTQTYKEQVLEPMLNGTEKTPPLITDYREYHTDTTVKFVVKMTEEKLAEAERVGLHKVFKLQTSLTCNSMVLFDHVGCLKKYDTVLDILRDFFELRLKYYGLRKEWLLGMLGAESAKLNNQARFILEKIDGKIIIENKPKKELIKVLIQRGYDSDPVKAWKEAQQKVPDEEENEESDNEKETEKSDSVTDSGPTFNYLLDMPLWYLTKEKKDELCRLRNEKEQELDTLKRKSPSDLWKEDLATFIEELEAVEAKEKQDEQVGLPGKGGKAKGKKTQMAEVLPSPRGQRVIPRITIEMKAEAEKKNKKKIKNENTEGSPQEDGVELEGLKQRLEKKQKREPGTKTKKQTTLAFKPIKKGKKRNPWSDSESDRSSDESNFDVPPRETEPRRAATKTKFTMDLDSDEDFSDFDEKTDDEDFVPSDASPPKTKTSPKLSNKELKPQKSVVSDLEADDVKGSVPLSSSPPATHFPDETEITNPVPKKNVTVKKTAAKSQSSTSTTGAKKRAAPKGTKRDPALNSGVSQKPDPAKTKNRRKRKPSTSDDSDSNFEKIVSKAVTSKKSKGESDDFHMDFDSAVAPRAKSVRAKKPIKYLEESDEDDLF

Consider `COc1cc([C@@H]2c3cc4c(cc3[C@@H](O[C@@H]3O[C@@H]5CO[C@@H](C)O[C@H]5[C@H](O)[C@H]3O)[C@H]3COC(=O)[C@H]23)OCO4)cc(OC)c1O` [ETOPOSIDE], for which the IC50 in the assay with MCF7 is 1.98 µM; with DU-145 it was 1.44 µM; with HCT-15, 2.03 µM; in the assay on K562, 1.21 µM. The inhibition in assay [1] worked out at 61.9%; in assay [2], 38%.

`COc1cccc2c1C(=O)c1c(O)c3c(c(O)c1C2=O)C[C@@](O)(C(=O)CO)C[C@@H]3O[C@H]1C[C@H](N)[C@H](O)[C@H](C)O1` [DOXORUBICIN]: the IC50 worked out at 1.75 µM with DU-145, 1.25 µM in the assay with HCT-15 and 1.33 µM in the assay with K562.

Take `COc1cc(OCC2CO2)ccc1/C=C/C(=O)c1ccc(OCC2CO2)cc1` (stereo not drawn): the IC50 with MCF7 was 3.64 µM; in the assay with DU-145 it was > 50 µM; with HCT-15, 4.82 µM; in the assay on K562, 13.7 µM. Also, the inhibition was 0% in assay [3], 28.5% in assay [1] and 14% in assay [2].

As for `COc1ccc(/C=C/C(=O)c2ccc(OCC3CS3)cc2)cc1` (stereo not drawn), the IC50 in the assay with MCF7 is 23.6 µM; with DU-145 it was 19.4 µM; in the assay with HCT-15 it was 10.1 µM; with K562, > 50 µM. Further, the inhibition in assay [3] came to 0%; in assay [1] it was 31.6%; in assay [2] it was 14.8%.

In the case of `COc1ccc(/C=C/C(=O)c2ccc(OCC3CS3)cc2OCC2CS2)cc1` (stereo not drawn), the IC50 was determined as 0.49 µM in the assay on MCF7, 1.07 µM with DU-145, 0.23 µM with HCT-15 and 7.6 µM with K562. Further, the inhibition came out at 0% in assay [3], 61% in assay [1] and 20.8% in assay [2].

`O=C(/C=C/c1ccc(OCC2CS2)cc1)c1ccc(OCC2CS2)cc1` (stereo not drawn): the IC50 in the assay with MCF7 was 21.7 µM; with DU-145 it was > 50 µM; in the assay on HCT-15, 12.2 µM; with K562, 13.4 µM. Besides, the inhibition in assay [3] is 0%; in assay [1] it was 34.6%; in assay [2], 18%.

For `COc1ccc(C(=O)/C=C/c2ccc(OCC3CO3)cc2)cc1` (stereo not drawn), the IC50 in the assay with MCF7 was determined as 10.9 µM; with DU-145, 36.9 µM; with HCT-15, 30.4 µM; with K562 it was 33.5 µM. Further, the inhibition was determined as 0% in assay [3], 22% in assay [1] and 15.2% in assay [2].

On to `COc1ccc(/C=C/C(=O)c2ccc(OCC(O)CCl)cc2)cc1` (stereo not drawn), for which the IC50 in the assay with MCF7 is 18.4 µM; in the assay with DU-145, > 50 µM; in the assay on HCT-15 it was 20.5 µM; in the assay on K562, 16.2 µM. Besides, the inhibition in assay [3] worked out at 0%; in assay [1] it was 34.9%; in assay [2], 16.3%.

In the case of `COc1ccc(C(=O)/C=C/c2ccc(OCC3CS3)cc2)cc1` (stereo not drawn), the IC50 in the assay on MCF7 is 11.5 µM; with DU-145, > 50 µM; in the assay on HCT-15 it was 28.4 µM; in the assay on K562, 32.5 µM. Also, the inhibition in assay [3] is 0%; in assay [1] it was 31.6%; in assay [2], 15.5%.

On to `O=C(/C=C/c1ccc(OCC2CO2)cc1)c1ccc(OCC2CO2)cc1` (stereo not drawn), for which the IC50 with MCF7 is 3.87 µM; in the assay with DU-145 it was > 50 µM; in the assay on HCT-15 it was 18.5 µM; with K562 it was 7.27 µM. Also, the results for the inhibition in assay [3], in assay [1] and in assay [2] were 0%, 33.5% and 19.3%, respectively.

`COc1ccc(/C=C/C(=O)c2ccc(OCC3CO3)cc2)cc1` (stereo not drawn): the IC50 in the assay on MCF7 was found to be 11.6 µM; in the assay with DU-145, 43.3 µM; in the assay with HCT-15, 27.1 µM; with K562 it was 27.9 µM. In addition, the inhibition in assay [3] was found to be 0%; in assay [1], 28.8%; in assay [2] it was 17.6%.

`CC[C@@]1(O)C(=O)OCc2c1cc1n(c2=O)Cc2cc3ccccc3nc2-1` [CAMPTOTHECIN]: the IC50 in the assay on MCF7 stood at 2.43 µM; with DU-145 it was 0.61 µM; in the assay on HCT-15, 0.8 µM; with K562, 0.59 µM.

As for `COc1ccc(C(=O)/C=C/c2ccc(OCC(O)CCl)cc2)cc1` (stereo not drawn), the IC50 is 29.2 µM with MCF7, > 50 µM in the assay on DU-145, 20.6 µM in the assay with HCT-15 and 29.1 µM in the assay with K562. Moreover, the inhibition in assay [3] stood at 0%; in assay [1], 30.1%; in assay [2] it was 14%.
